Measurements reported in patent US11332435B2, “Method for producing (3S)-3-(4-chloro-3-{[(2S,3R)-2-(4- chlorophenyl)-4,4,4-trifluoro-3-methylbutanoyl]amino}phenyl)-3-cyclo-propylpropanoic acid and the crystalline form thereof for use as a pharmaceutical ingredient” (Bayer Pharma Aktiengesellschaft, priority 2017, dated 2022).

Experiments:
[1] = thermodynamic stability of the solid form; assay type: physicochemical; settings: crystalline modification 1 compared with amorphous form of WO 2012/139888
[2] = stability in the micronization process; assay type: physicochemical
[3] = bioavailability of the solid form; assay type: in vivo; settings: crystalline form of modification 1

thermodynamic stability [1]: higher thermodynamic stability
stability in the micronization process (conversion, recrystallization) [2]: stable in the micronization process
bioavailability [3]: reproducible bioavailability
SMILES: C[C@H]([C@H](C(=O)Nc1cc([C@@H](CC(=O)O)C2CC2)ccc1Cl)c1ccc(Cl)cc1)C(F)(F)F [Example I-1, (3S)-3-(4-chloro-3-{[(2S,3R)-2-(4-chlorophenyl)-4,4,4-trifluoro-3-methylbutanoyl]amino}phenyl)-3-cyclopropylpropanoic acid]
